Assay results published in patent US7906547B2, “Azabicylic compounds, a process for their preparation and pharmaceutical compositions containing them” (Les Laboratoires Servier, priority 2008, dated 2011).
Structures can show the parent of a compound that is named as a salt.

How the values were obtained:
[1] = tested on: Wistar rat; assay: Interaction with barbital in the Wistar rat; assay type: in vivo; details: 30 mg/kg PO 30 minutes before barbital 170 mg/kg IP, sleep measured for 4 hours
Description: The objective of this test is to determine the anti-sedative, awakening and/or anti-hypnotic properties of the compounds of the present invention. The rats are placed in individual cages and are given an injection of barbital (170 mg/kg IP). The duration of sleep is then measured for 4 hours after the injection of barbital, determined on the basis of loss of the righting reflex. The compounds of the invention or their carriers are administered by the oral route 30 minutes before the administration of barbital.

[2] = tested on: NMRI mouse; assay: Tail suspension test in the NMRI mouse; assay type: in vivo; details: 10 mg/kg IP 24 hours and 30 minutes before suspension, 6 minutes
Description: The tail suspension test in the mouse (Porsolt et al., Arch. Int. Pharmacodyn., 1987, 288, 11) enables detection of psychopharmacological properties of compounds. NMRI mice are suspended by the tail, with the aid of a piece of adhesive tape, from a hook for 6 minutes: the immobility time is measured automatically with the aid of movement sensors. The animals are treated, by the intraperitoneal route, with the compounds of the invention or their carriers 24 hours and 30 minutes before they are suspended.

[3] = target: T1, type H3 central histamine receptors (Mus musculus, UniProt P58406); assay: Cerebral levels of Nτ-methylhistamine in the NMRI mouse (ex vivo H3 antagonist activity); details: one hour after treatment, vs carrier
T1 construct: the brains are removed, frozen in liquid nitrogen, weighed and homogenised; from tissue; host or cells: brain of living NMRI mice (oral dosing)
T1 sequence (P58406 whole entry): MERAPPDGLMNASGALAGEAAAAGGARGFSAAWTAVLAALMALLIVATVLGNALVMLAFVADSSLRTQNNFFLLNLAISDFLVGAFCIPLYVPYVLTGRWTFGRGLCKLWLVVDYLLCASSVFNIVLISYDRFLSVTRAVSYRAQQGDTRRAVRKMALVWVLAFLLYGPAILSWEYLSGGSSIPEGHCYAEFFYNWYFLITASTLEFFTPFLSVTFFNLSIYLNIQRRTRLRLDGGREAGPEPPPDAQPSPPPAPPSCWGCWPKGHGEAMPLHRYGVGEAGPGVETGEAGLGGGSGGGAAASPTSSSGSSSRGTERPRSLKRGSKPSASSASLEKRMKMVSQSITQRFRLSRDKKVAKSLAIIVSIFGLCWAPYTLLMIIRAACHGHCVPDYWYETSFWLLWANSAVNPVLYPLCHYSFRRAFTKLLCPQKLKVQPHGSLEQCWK
Description: The purpose of this study, which was carried out in accordance with the method of Taylor et al. (Biochem. Pharm., 1992, 44, 1261-1267), is to evaluate the ex vivo activity of the compounds of the present invention as antagonists of type H3 central histamine receptors. […] An increase in the cerebral concentrations of N^τ-methylhistamine indicates an increase in the turn-over of histamine by blockage of the type H3 central histamine receptors.
NMRI mice (18-20 g) are treated with compounds of the present invention or with their carrier (20 ml/kg) by the oral route. One hour after the pharmacological treatment, the animals are sacrificed; the brains are removed, frozen in liquid nitrogen, weighed and homogenised in 0.1N HClO4 at 4° C. The homogenised products are centrifuged (15 000 g, 17 min, 4° C.). The supernatants are recovered and divided into aliquots. The aliquots are frozen in liquid nitrogen and stored at −80° C. until they are analysed.
Determination of the cerebral levels of N^τ-methylhistamine is carried out by capillary electrophoresis. The tissue levels of N^τ-methylhistamine are expressed in μg/g of fresh brain. The comparison of the cerebral levels of N^τ-methylhistamine between animals treated with the carrier (controls) and animals treated with compounds of the present invention is carried out by single-factor variance analysis followed, if necessary, by a complementary analysis (Dunnett's test).

[4] = tested on: Wistar rat; assay: Electroencephalogram recordings in the awake Wistar rat; assay type: in vivo; details: 3 mg/kg IP
Description: Electrodes are chronically implanted in adult male Wistar rats, being located at the surface of the frontal and parietal cortex. Cortical electroencephalogram (EEG) recordings are made in the rats placed in cages in a sound-proofed room. The compounds and carriers are administered in randomised manner by the intraperitoneal route at 10 o'clock on the same days with a minimum of 3 days between each administration, allowing each rat to be used as its own control. The absolute power of the slow delta activities (1-4 Hz), which predominate during slow sleep and disappear during wakefulness and paradoxical sleep, is averaged over successive periods of 30 minutes. Over 30 minutes, high and low values for the power of the slow delta activities are signs of […], respectively.

[5] = tested on: NMRI mouse; assay: Marble-burying test in the NMRI mouse; assay type: in vivo; details: 30 mg/kg IP 30 minutes before test, 30 minutes period
Description: The spontaneous marble-burying behaviour in the mouse is a very sensitive empirical test for antidepressant compounds (Sanchez and Meier, Psychopharmacology, 1997; 129: 197-205; Nicolas and Prinssen, Eur. J. Pharmacol., 2006, 547: 106-115). The mice are placed in individual cages in which there are 24 marbles and the number of marbles buried by each animal is determined for a period of 30 minutes. The animals are treated by the intraperitoneal route with the compounds of the present invention or their carriers 30 minutes before placing the animals in the cage containing marbles.

[6] = tested on: NMRI mouse; assay: Forced swimming test in the NMRI mouse; assay type: in vivo; details: 30 mg/kg IP 30 minutes before test, final 4 minutes of 6
Description: The forced swimming test is very widely used for detecting the antidepressant properties of compounds (Porsolt et al., Arch. Int. Pharmacodyn., 1977, 229, 327-336). The animals are placed for 6 minutes in cylinders filled with water (14 cm) and the immobility time is measured for the final 4 minutes by a video-tracking system. The compounds of the present invention or their carriers are administered by the intraperitoneal route 30 minutes before the mice are placed in the cylinder.

[7] = tested on: Sprague-Dawley rat; assay: Object recognition in the Sprague-Dawley rat; assay type: in vivo; details: 0.3 mg/kg PO, 60 minutes before each session, 24 hours between sessions
Text: The object recognition test in the Sprague-Dawley rat (Behav. Brain Res., 1988, 31, 47-59) is based on the spontaneous exploratory activity of the animal and has the characteristics of episodic memory in humans. This memory test is sensitive to ageing (Eur. J. Pharmacol., 1997, 325, 173-180) and to cholinergic dysfunctions (Pharm. Biochem. Behav. 1996, 53(2), 277-283) and is based on the differences in the exploration of 2 objects of fairly similar shape—one familiar, the other new. Prior to the test, the animals are habituated to the environment (an enclosure without an object). In the course of a first session, the rats are placed (3 minutes) in the enclosure, in which there are 2 identical objects. The duration of exploration is measured for each object. In the course of the second session (3 minutes), 24 hours later, 1 of the 2 objects is replaced by a new object. The duration of exploration is measured for each object. The assessment criterion is the difference, Delta, expressed in seconds, between the exploration times for the new object and for the familiar object in the course of the second session.

[8] = tested on: Wistar rat; assay: Social recognition in the Wistar rat; assay type: in vivo; details: second encounter after 2 hours
Text: Initially described in 1982 (J. Comp. Physiol., 1982, 96, 1000-1006), the social recognition test has subsequently been proposed by various authors (Psychopharmacology, 1987, 91, 363-368; Psychopharmacology, 1989, 97, 262-268) for studying the mnemocognitive effects of new compounds. The test is based on the natural expression of the olfactory memory of the rat and its natural tendency to forget and allows evaluation of memorisation, by recognition of a young congeneric animal, by an adult rat. A young rat (21 days), taken at random, is placed for 5 minutes in the cage housing an adult rat. With the aid of a video device, the experimenter observes the social recognition behaviour of the adult rat and measures its overall duration. The young rat is then removed from the adult rat's cage and is placed in its own cage until the second introduction. The adult rat is given the compound under test by the intraperitoneal route and, after 2 hours, is again brought into the presence (5 minutes) of the young rat. The social recognition behaviour is then observed again and its duration measured. The assessment criterion is the difference (T2−T1), expressed in seconds, between the “recognition” times of the 2 encounters.

| Compound | reduction of the duration of sleeping caused by barbital [1] | reduction in the immobility time [2] | increase in endogenous cerebral concentrations of Nτ-methylhistamine ([3]; 10 mg/kg PO) | increase in endogenous cerebral concentrations of Nτ-methylhistamine ([3]; 30 mg/kg PO) | decrease in the number of balls buried [5] | reduction in immobility [6] | other results |
| --- | --- | --- | --- | --- | --- | --- | --- |
| CN(C)C(=O)c1ccc(OCCCCN2C[C@H]3C[C@H]3C2)cc1.O=C(O)C(=O)O [Example 8, 4-{4-[(1R,5S)-3-Azabicyclo[3.1.0]hex-3-yl]butoxy}-N,N-dimethyl-benzamide oxalate] | −79% |  |  |  |  |  |  |
| CC(=O)N(C)c1ccc(OCCCN2C[C@H]3C[C@H]3C2)cc1.Cl [Example 13, N-(4-{3-[(1R,5S)-3-Azabicyclo[3.1.0]hex-3-yl]propoxy}phenyl)-N-methylacetamide hydrochloride] |  | 53% | 135% | 303% |  |  | duration of the reduction in the power of the slow delta waves [4]: 120 min; effect on power of the slow delta waves (1-4 Hz), cortical EEG [4]: significant reduction |
| NC(=O)c1ccc(OCCN2C[C@H]3C[C@H]3C2)cc1 [Example 2, 4-{2-[(1R,5S)-3-Azabicyclo[3.1.0]hex-3-yl]ethoxy}benzamide] |  |  |  |  | 99% |  |  |
| CC(=O)Nc1ccc(OCCCN2C[C@H]3C[C@H]3C2)cc1 [Example 4, N-(4-{3-[(1R,5S)-3-Azabicyclo[3.1.0]hex-3-yl]propoxy}phenyl)acetamide] |  | 36% |  |  |  |  |  |
| CNC(=O)c1ccc(OCCCCN2C[C@H]3C[C@H]3C2)cc1 [Example 12, 4-{4-[(1R,5S)-3-Azabicyclo[3.1.0]hex-3-yl]butoxy}-N-methylbenzamide] | −55% |  |  |  |  |  |  |
| CC(=O)Nc1ccc(OCCCCN2C[C@H]3C[C@H]3C2)cc1 [Example 6, N-(4-{4-[(1R,5S)-3-Azabicyclo[3.1.0]hex-3-yl]butoxy}phenyl)acetamide] |  |  | 106% | 210% |  |  |  |
| CC(=O)Nc1ccc(OCCN2C[C@H]3C[C@H]3C2)cc1 [Example 5, N-(4-{2-[(1R,5S)-3-Azabicyclo[3.1.0]hex-3-yl]ethoxy}phenyl)acetamide] | −80% | 64% | 109% | 200% | 49% | 32% |  |
| COCC(=O)Nc1ccc(OCCCN2C[C@H]3C[C@H]3C2)cc1 [Example 14, N-(4-{3-[(1R,5S)-3-Azabicyclo[3.1.0]hex-3-yl]propoxy}phenyl)-2-methoxyacetamide] |  | 36% | 124% | 266% |  |  |  |
| COCC(=O)Nc1ccc(OCCN2C[C@H]3C[C@H]3C2)cc1 [Example 15, N-(4-{2-[(1R,5S)-3-Azabicyclo[3.1.0]hex-3-yl]ethoxy}phenyl)-2-methoxyacetamide] | −76% | 77% |  |  | 83% | 34% |  |
| NC(=O)c1ccc(OCCCN2C[C@H]3C[C@H]3C2)cc1 [Example 1, 4-{3-[(1R,5S)-3-Azabicyclo[3.1.0]hex-3-yl]propoxy}-benzamide hydrochloride] |  | 59% |  |  | 48% | 76% | difference, Delta, between exploration times for the new object and the familiar object (second session) [7]: ~6 s; difference (T2−T1) between the recognition times of the 2 encounters ([8]; 1 mg/kg IP): 21 s; difference (T2−T1) between the recognition times of the 2 encounters ([8]; 3 mg/kg IP): 26 s; duration of the reduction in the power of the slow delta waves [4]: 120 min |
